The experiment has as its target T1, human Nav1.1 (Homo sapiens, UniProt P35498).
T1 construct: host or cells: HEK293
The experiment in a line: Amplification of Nav1.1-derived voltage-dependent sodium current (Nav1.1 current), cell line stably expressing human Nav1.1, automated patch clamp. The format is cell-based. The protocol:
Test 1: Evaluation of the Amplification of Nav1.1-Derived Voltage-Dependent Sodium Current (Nav1.1 Current) by Using a Cell Line Stably Expressing Human Nav1.1
(1) Preparation of Test Compounds
Test compounds were prepared by dissolving in DMSO at 200 times of the concentration at evaluation, and diluting the obtained solution to twice the concentration of evaluation with an extracellular fluid (135 mmol/L NaCl, 4 mmol/L KCl, 1 mmol/L MgCl2, 5 mmol/L CaCl2, 5 mmol/L Glucose, 10 mmol/L HEPES).
(2) Induction and Measurement of Nav1.1 Current
A HEK293 cell line stably expressing human Nav1.1 (cat #CYL3009, Millipore, USA, Human Embryonic Kidney 293) was purchased, and used in the present test. Nav1.1 current was induced by stimulating Ramp wave voltage. Detection of current which accompanied with the stimulation of voltage was carried out by a patch-clamp voltage-clamp method using HTS automated patch clamp system (SynchroPatch 768PE, Nanion Technologies GmbH, Germany). Only cells with more than 500 pA of voltage-dependent sodium channel current were used for the evaluation of the activity of compounds on Nav1.1 current because there was the possibility that currents derived from endogenous voltage-dependent sodium channels accounted for large proportion in cells with less than 500 pA of voltage-dependent sodium channel current which was induced by stimulating Ramp wave voltage.
(3) Pharmacologic Effect on Nav1.1 Current
The effect of test compounds on the amplification of Nav1.1-derived voltage-dependent sodium current was evaluated by using a cell line stably expressing human Nav1.1 and HTS automated patch clamp system. In other words, test compounds were added in an extracellular fluid containing 1% DMSO, and evaluated as a change of the peak value of Nav1.1 current and the area under the curve (AUC).
(4) Method for Pharmacological Evaluation
The Nav1.1 current amplification rates of test compounds were calculated by the following formula:
Nav1.1 current amplification rate (%)=100×[the peak value of Nav1.1 current or the area under the curve after the addition of test compounds]/[the peak value of Nav1.1 current or the area under the curve before the addition of test compounds]−100

Where [1] appears, read: concentration of each compound 1 μmol/L (Test Result 6).
Setting [2] is: compound 50 μmol/L, HEK293 stably expressing human Nav1.1.
Where [3] appears, read: 10 μmol/L compound (Test Result 5).

Structures are written as SMILES.

In the case of `COC1CCN(Cc2cccc3c2CCN3C(=O)Cn2nc(C3=CCC(C)CC3)ccc2=O)C1` (mixture of isomers) [Example 272], the “Nav1.1 current amplification rate (%)” value under setting [1] is listed as 127%.
On the same count and under the same terms, under `COC1CCN(Cc2cccc3c2CCN3C(=O)Cn2nc(C3=CCC(C)CC3)ccc2=O)C1` (mixture of isomers) [Example 273] stands 77%.
As for `CC1CC=C(c2ccc(=O)n(CC(=O)NC3CCN(c4ccccc4)C3)n2)CC1` (mixture of isomers) [Example 369], the “Nav1.1 current amplification rate (%)” value under setting [2] came out at 10%.
Regarding `CC1CC=C(c2ccc(=O)n(CC(=O)N3CCC(c4cccnc4)CC3)n2)CC1` (racemic) [Example 262], the “Nav1.1 current amplification rate (%)” value under setting [3] turned out to be 124%.
For `COC1CN(Cc2cccc3c2CCN3C(=O)Cn2nc(C3=CCC(C)CC3)ccc2=O)C1` (racemic) [Example 274], under setting [1], the “Nav1.1 current amplification rate (%)” value was 60%.
Consider `COCCN(C)Cc1cccc2c1CCN2C(=O)Cn1nc(C2=CCC(C)CC2)ccc1=O` (racemic) [Example 275], for which the “Nav1.1 current amplification rate (%)” value under setting [1] was found to be 46%.
Regarding `CC1CC=C(c2ccc(=O)n(CC(=O)N3CCc4c3ccnc4C3=CCN(C(=O)OC(C)(C)C)C3)n2)CC1` (racemic) [Example 280], under setting [1], the “Nav1.1 current amplification rate (%)” value stood at 10%.
Regarding `CC1CC=C(c2ccc(=O)n(CC(=O)N3CCc4c3ccnc4C3=CCNC3)n2)CC1` (racemic) [Example 281], the “Nav1.1 current amplification rate (%)” value under setting [3] stood at 40%.
For `CC1CC=C(c2ccc(=O)n(CC(=O)N3CCc4c(CN5CCCCC5)cccc43)n2)CC1` (racemic) [Example 282], the “Nav1.1 current amplification rate (%)” value under setting [1] was 26%.
`CC1CC=C(c2ccc(=O)n(CC(=O)N3CCc4c3ccnc4C3=CCN(C)C3)n2)CC1` (racemic) [Example 283]: the “Nav1.1 current amplification rate (%)” value under setting [1] amounted to 15%.
With `CC1CC=C(c2ccc(=O)n(CC(=O)N3CCc4c3ccnc4C3=CCOC3)n2)CC1` (racemic) [Example 284], the “Nav1.1 current amplification rate (%)” value under setting [1] was 91%.
`CC1CC=C(c2ccc(=O)n(CC(=O)N3CCc4c3ccnc4-c3cn[nH]c3)n2)CC1` (racemic) [Example 285]: the “Nav1.1 current amplification rate (%)” value under setting [1] came out at 113%.
Take `Cc1cn(Cc2cccc3c2CCN3C(=O)Cn2nc(C3=CCC(C)CC3)ccc2=O)cn1` (racemic) [Example 288]: the “Nav1.1 current amplification rate (%)” value under setting [1] was determined as 115%.
With `CC1CC=C(c2ccc(=O)n(CC(=O)N3CCc4nc(-c5cn[nH]c5)ccc43)n2)CC1` (racemic) [Example 289], under setting [2], the “Nav1.1 current amplification rate (%)” value came to 51%.
Consider `CC1CC=C(c2ccc(=O)n(CC(=O)N3CCc4c(-c5cc[nH]n5)ccnc43)n2)CC1` (racemic) [Example 291], for which the “Nav1.1 current amplification rate (%)” value under setting [2] stood at 212%.
`CC1CC=C(c2ccc(=O)n(CC(=O)N3CCc4c(-c5cc[nH]n5)ccc(F)c43)n2)CC1` (racemic) [Example 292]: the “Nav1.1 current amplification rate (%)” value under setting [1] is 46%.
Regarding `CC1CC=C(c2ccc(=O)n(CC(=O)N3CCc4c(C=C5CCNCC5)cccc43)n2)CC1` (racemic) [Example 293], the “Nav1.1 current amplification rate (%)” value under setting [2] is reported as 55%.
For `CC1CC=C(c2ccc(=O)n(CC(=O)N3CCc4c3ccc(F)c4-c3ccnnc3)n2)CC1` (racemic) [Example 295], the “Nav1.1 current amplification rate (%)” value under setting [1] is 95%.
Same read-out and setting: under `CC1CC=C(c2ccc(=O)n(CC(=O)N3CCc4c3ccnc4C3=CCOCC3)n2)CC1` (racemic) [Example 296] stands 87%.
On to `CC1CC=C(c2ccc(=O)n(CC(=O)N3CCc4c3ccnc4-c3cccnc3)n2)CC1` (racemic) [Example 297], for which the “Nav1.1 current amplification rate (%)” value under setting [1] is recorded as 151%.
Same read-out and setting: under `CC1CC=C(c2ccc(=O)n(CC(=O)N3CCc4cc(-c5cccnc5)ccc43)n2)CC1` (racemic) [Example 298] stands 51%.
In the case of `CC1CC=C(c2ccc(=O)n(CC(=O)N3CCc4c(C5CN(C(C)C)C5)cccc43)n2)CC1` (racemic) [Example 304], the “Nav1.1 current amplification rate (%)” value under setting [3] was found to be 167%.
With `COCCCN1CC2(CCN(C(=O)Cn3nc(C4=CCC(C)CC4)ccc3=O)C2)C1` (racemic) [Example 308], under setting [2], the “Nav1.1 current amplification rate (%)” value came to 9%.
In the case of `COC1CCN(c2nccc3c2CCN3C(=O)Cn2nc(C3=CCC(C)CC3)ccc2=O)CC1` (racemic) [Example 309], the “Nav1.1 current amplification rate (%)” value under setting [1] amounted to 71%.
With `CC(=O)N1CC=C(c2nccc3c2CCN3C(=O)Cn2nc(C3=CCC(C)CC3)ccc2=O)C1` (racemic) [Example 310], the “Nav1.1 current amplification rate (%)” value under setting [1] came out at 87%.
Still for that read-out and setting: under `CC1CC=C(c2ccc(=O)n(CC(=O)N3CCc4c(CNCC(F)F)cccc43)n2)CC1` (racemic) [Example 312] stands 80%; under `COCCNCc1cccc2c1CCN2C(=O)Cn1nc(C2=CCC(C)CC2)ccc1=O` (racemic) [Example 314], 9%; under `CC1CC=C(c2ccc(=O)n(CC(=O)N3CCc4c(CNC5CCC5)cccc43)n2)CC1` (racemic) [Example 315], 19%.
`CC1CC=C(c2ccc(=O)n(CC(=O)N3CCc4c(CNC5CCOCC5)cccc43)n2)CC1` (racemic) [Example 317]: the “Nav1.1 current amplification rate (%)” value under setting [1] is reported as 41%.
Take `CC1CC=C(c2ccc(=O)n(CC(=O)N3CCc4cc(OCC(C)(C)O)ccc43)n2)CC1` (racemic) [Example 320]: the “Nav1.1 current amplification rate (%)” value under setting [1] is listed as 10%.
The same measure, in the same setting: under `CC1CC=C(c2ccc(=O)n(CC(=O)Nc3ccc4c(cnn4C)c3)n2)CC1` (racemic) [Example 336] stands 68%.
On to `CC1CC=C(c2ccc(=O)n(CC(=O)Nc3cnc4nccn4c3)n2)CC1` (racemic) [Example 337], for which the “Nav1.1 current amplification rate (%)” value under setting [1] is recorded as 52%.
On to `Cc1cc2nc(NC(=O)Cn3nc(C4=CCC(C)CC4)ccc3=O)ccn2n1` (racemic) [Example 340], for which, under setting [2], the “Nav1.1 current amplification rate (%)” value turned out to be 41%.
Same read-out and setting: under `CC1CC=C(c2ccc(=O)n(CC(=O)Nc3ccc4nncn4c3)n2)CC1` (racemic) [Example 341] stands 202%.
For `CC1CC=C(c2ccc(=O)n(CC(=O)Nc3ccc4nccn4c3)n2)CC1` (racemic) [Example 343], under setting [1], the “Nav1.1 current amplification rate (%)” value stood at 44%.
Turning to `CC1CC=C(c2ccc(=O)n(CC(=O)Nc3ccc4cncn4c3)n2)CC1` (racemic) [Example 344], the “Nav1.1 current amplification rate (%)” value under setting [1] came out at 69%.
As to `Cc1cc2ccc(NC(=O)Cn3nc(C4=CCC(C)CC4)ccc3=O)cn2n1` (racemic) [Example 347], the “Nav1.1 current amplification rate (%)” value under setting [1] is on record as 37%.
Still for that read-out and setting: under `CC1CC=C(c2ccc(=O)n(CC(=O)Nc3cnc4c(cnn4C)c3)n2)CC1` (racemic) [Example 348] stands 57%.
Still for that read-out and setting: under `CC1CC=C(c2ccc(=O)n(CC(=O)Nc3ccc4ncnn4n3)n2)CC1` (racemic) [Example 350] stands 31%.
In the case of `Cc1cc2ncnn2cc1NC(=O)Cn1nc(C2=CCC(C)CC2)ccc1=O` (racemic) [Example 351], the “Nav1.1 current amplification rate (%)” value under setting [2] stood at 98%.
On to `Cc1c(NC(=O)Cn2nc(C3=CCC(C)CC3)ccc2=O)ccc2ncnn12` (racemic) [Example 353], for which, under setting [2], the “Nav1.1 current amplification rate (%)” value was found to be 32%.
Still for that read-out and setting: under `CC1CC=C(c2ccc(=O)n(CC(=O)Nc3ccc4ncccc4c3)n2)CC1` (racemic) [Example 357] stands 43%.
For `CC1CC=C(c2ccc(=O)n(CC(=O)Nc3ccn4cnnc4c3)n2)CC1` (racemic) [Example 358], under setting [1], the “Nav1.1 current amplification rate (%)” value worked out at 71%.
For the molecule `CC1CC=C(c2ccc(=O)n(CC(=O)Nc3cccc(-n4ccnc4)c3)n2)CC1` (racemic) [Example 363], under setting [1], the “Nav1.1 current amplification rate (%)” value was found to be 174%.
As for `Cc1cc(NC(=O)Cn2nc(C3=CCC(C)CC3)ccc2=O)cc(C)n1` (racemic) [Example 364], under setting [1], the “Nav1.1 current amplification rate (%)” value is 25%.
With `CC1CC=C(c2ccc(=O)n(CC(=O)Nc3cncc(CN(C)C)c3)n2)CC1` (racemic) [Example 365], the “Nav1.1 current amplification rate (%)” value under setting [2] is given as 32%.
For `COC1CN(Cc2cncc(NC(=O)Cn3nc(C4=CCC(C)CC4)ccc3=O)c2)C1` (racemic) [Example 366], the “Nav1.1 current amplification rate (%)” value under setting [2] came out at 37%.
On to `CC1CC=C(c2ccc(=O)n(CC(=O)Nc3cncc(C4=CCN(C)C4)c3)n2)CC1` (racemic) [Example 367], for which the “Nav1.1 current amplification rate (%)” value under setting [1] stood at 38%.
For the molecule `CC1CC=C(c2ccc(=O)n(CC(=O)NC3CCN(c4ccccc4)CC3)n2)CC1` (racemic) [Example 368], under setting [3], the “Nav1.1 current amplification rate (%)” value was 18%.
In the case of `CC1CC=C(c2ccc(=O)n(CC(=O)Nc3ccnc(CO)c3)n2)CC1` (racemic) [Example 370], the “Nav1.1 current amplification rate (%)” value under setting [3] was 35%.
As for `CC1CC=C(c2ccc(=O)n(CC(=O)Nc3ccnc(C4=CCN(C)C4)c3)n2)CC1` (racemic) [Example 371], the “Nav1.1 current amplification rate (%)” value under setting [2] is 64%.

The record behind these values is patent US20220347175A1, “PYRIDAZINONE DERIVATIVE” (Sumitomo Dainippon Pharma Co., Ltd., priority 2018, published 2022).
